Results published in US20240376097A1, “BCL-2 Inhibitor” (BeiGene Ltd., priority 2020, published 2024).
Where two headings read alike, the source gives them in different places.

Legend:
[1] = target: Recombinant human Bcl-2 protein (Homo sapiens (Human), UniProt P10415); experiment: Bcl-2 TR-FRET Assay; type: binding
Procedure, shortened: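 Displacement of FITC-labelled Bak peptide (0.5 nM) from 0.05 nM human Bcl-2, detected by TR-FRET with Tb-cryptate anti-6His antibody after 1 h at room temperature. Compounds, 10-point series, preincubated 0.5 h with protein in 20 mM potassium phosphate pH 7.5, 50 mM NaCl. IC50s fitted by four-parameter logistic.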

[2] = target: recombinant human Bcl-2-G101V protein (Homo sapiens (Human), UniProt P10415, G101V); experiment: Bcl-2-G101V TR-FRET Assay; type: binding; settings: Bcl-2 G101V mutant, TR-FRET; read-out: Biochemical assay (IC50, nM) Bcl-2 G101V
Procedure, shortened: (§1)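 Percent inhibition of the Bcl-2-G101V–ligand interaction was computed from the 490 nm to 520 nm emission ratio after 337 nm excitation, over increasing compound concentrations; a four-parameter logistic fit gave IC50.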

[3] = tested on: recombinant human Bcl-2-G101V protein; experiment: Bcl-2-G101V TR-FRET Assay; type: binding; settings: ratio of biochemical IC50 Bcl-2 G101V / Bcl-2 WT
Procedure, shortened: as §1

[4] = tested on: RS4;11 (BCL-2 dependent acute lymphoblastic leukemia cell line); experiment: RS4;11 Cell Proliferation Assay; type: cell-based; settings: Homo sapiens, RS4-11, RS4;11 cells, read-out: Cellular proliferation assay (IC50, nM) RS4
Procedure, shortened: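 Viability measured via CellTiter-Glo luminescence after a 48 h, 37 °C exposure to compounds (10 points, highest 1 μM). Seeding was 50,000 RS4;11 cells per well in 10% FBS RPMI-1640; IC50 given as mean.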

[5] = tested on: BCL-2 G101V knock-in cell line H96 (derive from RS4;11); experiment: Bcl 2-G101V Knock-In RS4;11 Cell Proliferation Assay; type: cell-based; settings: Homo sapiens, RS4;11 Bcl-2 G101V knock-in clone H96, 48 hrs, CellTiter-GLO, read-out: Cellular proliferation assay (IC50, nM) RS4
Procedure, shortened: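 CellTiter-Glo luminescence after 48 h, 37 °C compound treatment (10 concentrations, maximum 1 μM or 10 μM) gave mean IC50 values. Cells were 50,000 per well of H96, a BCL2-G101V knock-in single clone derived from RS4;11 by Cas9 editing.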

[6] = target: recombinant human Bcl-2 D103Y protein (Homo sapiens (Human), UniProt P10415, D103Y); experiment: Bcl-2-D103Y Biochemical Assay (TR-FRET); type: binding; settings: for IC50: TR-FRET, FITC labeled Bak peptide; for Ratio of Bcl-2 D103Y/Bcl-2 WT: ratio of IC50
Procedure, shortened: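 Compounds titrated against the Bcl-2 D103Y–ligand interaction; inhibition derived from the TR-FRET emission ratio 490 nm/520 nm after 337 nm excitation. Four-parameter logistic fitting gave IC50.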

[7] = Bcl-2 wild type, TR-FRET, read-out: Biochemical assay (IC50, nM) Bcl-2 WT
[8] = wild type Bcl-2, unit inferred, read-out: Bcl-2 WT

SMILES	IC50 [1, 7]	IC50 [1, 8]	IC50 [2]	Ratio of Bcl-2 G101V/WT [3]	IC50 [4]	IC50 [5]	IC50 [6]	Ratio of Bcl-2 D103Y/Bcl-2 WT [6]
CC(C)c1ccccc1C1CN(Cc2ccc3c(c2)CCCO3)CCN1C1CC2(CCN(c3ccc(C(=O)NS(=O)(=O)c4ccc(NC[C@H]5CC[C@](C)(O)CC5)c([N+](=O)[O-])c4)c(Oc4cnc5[nH]ccc5c4)c3)CC2)C1 (stereo partly drawn) [Example 53, 2-((1H-pyrrolo[2,3-b]pyridin-5-yl)oxy)-4-(2-(4-(chroman-6-ylmethyl)-2-(2-isopropylphenyl)piperazin-1-yl)-7-azaspiro[3.5]nonan-7-yl)-N-((4-((((1r,4r)-4-hydroxy-4-methylcyclohexyl)methyl)amino)-3-nitrophenyl)sulfonyl)benzamide]	0.17 nM	0.17 nM	0.6 nM	3.5	0.47 nM	3.1 nM	0.38 nM	2.2
COc1ccc(CN2CCN(C3CC4(CCN(c5ccc(C(=O)NS(=O)(=O)c6ccc(NC[C@H]7CC[C@](C)(O)CC7)c([N+](=O)[O-])c6)c(Oc6cnc7[nH]ccc7c6)c5)CC4)C3)C(c3ccccc3C(C)C)C2)cc1OC (stereo partly drawn) [Example 81, 2-((1H-pyrrolo[2,3-b]pyridin-5-yl)oxy)-4-(2-(4-(3,4-dimethoxybenzyl)-2-(2-isopropylphenyl)piperazin-1-yl)-7-azaspiro[3.5]nonan-7-yl)-N-((4-((((1r,4r)-4-hydroxy-4-methylcyclohexyl)methyl)amino)-3-nitrophenyl)sulfonyl)benzamide]	0.038 nM	0.038 nM	0.2 nM	5.2	0.286 nM	0.878 nM	0.084 nM	2.2
[2H]C([2H])([2H])Oc1ccc(CN2CCN(C3CC4(C3)CN(c3ccc(C(=O)NS(=O)(=O)c5ccc(NC[C@H]6CC[C@](C)(O)CC6)c([N+](=O)[O-])c5)c(Oc5cnc6[nH]ccc6c5)c3)C4)[C@H](c3ccccc3C(C)C)C2)cc1OC([2H])([2H])[2H] [Example 243, 2-((1H-pyrrolo[2,3-b]pyridin-5-yl)oxy)-4-(6-((R)-4-(3,4-bis(methoxy-d3)benzyl)-2-(2-isopropylphenyl)piperazin-1-yl)-2-azaspiro[3.3]heptan-2-yl)-N-((4-((((1r,4r)-4-hydroxy-4-methylcyclohexyl)methyl)amino)-3-nitrophenyl)sulfonyl)benzamide]	0.04 nM	0.041 nM	0.086 nM	2.1	0.12 nM	0.22 nM	0.041 nM	1
COc1ccc(CN2CCN(C3CC4(C3)CN(c3ccc(C(=O)NS(=O)(=O)c5ccc(NC[C@H]6CC[C@](C)(O)CC6)c([N+](=O)[O-])c5)c(Oc5cnc6[nH]cc(F)c6c5)c3)C4)[C@H](c3ccccc3C(C)C)C2)nc1 [Example 241, 2-((3-fluoro-1H-pyrrolo[2,3-b]pyridin-5-yl)oxy)-N-((4-((((1r,4r)-4-hydroxy-4-methylcyclohexyl)methyl)amino)-3-nitrophenyl)sulfonyl)-4-(6-((R)-2-(2-isopropylphenyl)-4-((5-methoxypyridin-2-yl)methyl)piperazin-1-yl)-2-azaspiro[3.3]heptan-2-yl)benzamide]	0.035 nM	0.035 nM	0.096 nM	2.7	0.15 nM	0.32 nM	0.047 nM	1.3
COc1cc(CN2CCN(C3CC4(C3)CN(c3ccc(C(=O)NS(=O)(=O)c5ccc(NC[C@H]6CC[C@](C)(O)CC6)c([N+](=O)[O-])c5)c(Oc5cnc6[nH]cc(F)c6c5)c3)C4)[C@H](c3ccccc3C(C)C)C2)cnc1OC [Example 205, 4-(6-((R)-4-((5,6-dimethoxypyridin-3-yl)methyl)-2-(2-isopropylphenyl)piperazin-1-yl)-2-azaspiro[3.3]heptan-2-yl)-2-((3-fluoro-1H-pyrrolo[2,3-b]pyridin-5-yl)oxy)-N-((4-((((1r,4r)-4-hydroxy-4-methylcyclohexyl)methyl)amino)-3-nitrophenyl)sulfonyl) benzamide]	0.034 nM	0.034 nM	0.07 nM	2	0.39 nM	0.55 nM	0.047 nM	1.4
COc1cc(CN2CCN(C3CC4(CCN(c5ccc(C(=O)NS(=O)(=O)c6ccc(NC[C@H]7CC[C@](C)(O)CC7)c([N+](=O)[O-])c6)c(Oc6cnc7[nH]ccc7c6)c5)CC4)C3)[C@H](c3ccccc3C(C)C)C2)ccc1C [Example 260, 2-((1H-pyrrolo[2,3-b]pyridin-5-yl)oxy)-N-((4-((((1r,4r)-4-hydroxy-4-methylcyclohexyl)methyl)amino)-3-nitrophenyl)sulfonyl)-4-(2-((R)-2-(2-isopropylphenyl)-4-(3-methoxy-4-methylbenzyl)piperazin-1-yl)-7-azaspiro[3.5]nonan-7-yl)benzamide]	0.34 nM	0.24 nM	0.75 nM	2.2	0.13 nM	0.33 nM	0.27 nM	1.1
CC(C)c1ccccc1C1CN(C2COC2)CCN1C1CC2(CCN(c3ccc(C(=O)NS(=O)(=O)c4ccc(NC[C@H]5CC[C@](C)(O)CC5)c([N+](=O)[O-])c4)c(Oc4cnc5[nH]ccc5c4)c3)CC2)C1 (stereo partly drawn) [Example 6, 2-((1H-pyrrolo[2,3-b]pyridin-5-yl)oxy)-N-((4-((((1r,4r)-4-hydroxy-4-methylcyclohexyl)methyl)amino)-3-nitrophenyl)sulfonyl)-4-(2-(2-(2-isopropylphenyl)-4-(oxetan-3-yl)piperazin-1-yl)-7-azaspiro[3.5]nonan-7-yl)benzamide]	0.013 nM	0.013 nM	0.32 nM	24.6	0.53 nM	4.83 nM	0.18 nM	24
COc1ccc(CN2CCN(C3CC4(C3)CN(c3ccc(C(=O)NS(=O)(=O)c5ccc(NC[C@H]6CC[C@](C)(O)CC6)c([N+](=O)[O-])c5)c(Oc5cnc6[nH]cc(F)c6c5)c3)C4)[C@H](c3ccccc3C(C)C)C2)cc1OC1CC1 [Example 364, 4-(6-((R)-4-(3-cyclopropoxy-4-methoxybenzyl)-2-(2-isopropylphenyl)piperazin-1-yl)-2-azaspiro[3.3]heptan-2-yl)-2-((3-fluoro-1H-pyrrolo[2,3-b]pyridin-5-yl)oxy)-N-((4-((((1r,4r)-4-hydroxy-4-methylcyclohexyl)methyl)amino)-3-nitrophenyl)sulfonyl) benzamide]	0.14 nM	–	0.39 nM	2.9	0.13 nM	0.2 nM	0.14 nM	1.0
